Source: ChEMBL document CHEMBL3779807, “Synthesis and structure-activity relationship of α-keto amides as enterovirus 71 3C protease inhibitors” (Bioorg Med Chem Lett, 2016)

Assays:
[1] = Inhibition of EV71 3C protease using NMA-IEALFQGPPK(DNP)FR as substrate preincubated for 30 mins followed by addition of substrate measured after 2 hrs by FRET assay; design: species or system Enterovirus A71
[2] = Cytotoxicity against human RD cells assessed viable cells after 24 hrs by WST-1 assay; assay type: cell-based
[3] = test system: Enterovirus A71; assay: Antiviral activity against EV71 pseudotype virus infected in RD cells after 24 hrs by Bright-Glo luciferase assay; assay type: functional, organism-based; settings: Enterovirus A

| IC50 [1] [µM] | EC50 [3] [µM] | Compound | CC50 at 24 h [2] [µM] |
| --- | --- | --- | --- |
| 4.86 | 2.63 | O=C(/C=C/c1ccccc1)N[C@@H](Cc1ccccc1)C(=O)N[C@@H](C[C@@H]1CCCNC1=O)C(=O)C(=O)NC1CCCCC1 | > 100 |
| 8.21 | 11.6 | CCCCNC(=O)C(=O)[C@H](C[C@@H]1CCCNC1=O)NC(=O)[C@H](Cc1ccccc1)NC(=O)/C=C/c1ccccc1 | > 100 |
| 1.88 | 1.08 | CCCNC(=O)C(=O)[C@H](C[C@@H]1CCCNC1=O)NC(=O)[C@H](Cc1ccc(F)cc1)NC(=O)/C=C/c1ccccc1 | > 100 |
| > 20 | > 20 | CCCCCCNC(=O)C(=O)[C@H](C[C@@H]1CCCNC1=O)NC(=O)[C@H](Cc1ccccc1)NC(=O)/C=C/c1ccccc1 | > 100 |
| 1.32 | 1.12 | CC(C)NC(=O)C(=O)[C@H](C[C@@H]1CCCNC1=O)NC(=O)[C@H](Cc1ccc(F)cc1)NC(=O)/C=C/c1ccccc1 | > 100 |
| 6.3 | 4.5 | O=C(/C=C/c1ccccc1)N[C@@H](Cc1ccccc1)C(=O)N[C@@H](C[C@@H]1CCCNC1=O)C(=O)C(=O)NCc1ccco1 | > 100 |
| 1.42 | 1.32 | CC(C)NC(=O)C(=O)[C@H](CC1CCCNC1=O)NC(=O)[C@H](Cc1ccc(F)cc1)NC(=O)OCc1ccccc1 (single isomer, unassigned) | > 100 |
| 1.52 | 1.55 | O=C(/C=C/c1ccccc1)N[C@@H](Cc1ccc(F)cc1)C(=O)N[C@@H](C[C@@H]1CCCNC1=O)C(=O)C(=O)NC1CC1 | > 100 |
| 5.07 | 11 | CC(C)CNC(=O)C(=O)[C@H](C[C@@H]1CCCNC1=O)NC(=O)[C@H](Cc1ccccc1)NC(=O)/C=C/c1ccccc1 | > 100 |
| > 20 | > 20 | O=C(/C=C/c1ccccc1)N[C@@H](Cc1ccccc1)C(=O)N[C@@H](C[C@@H]1CCCNC1=O)C(=O)C(=O)Nc1ccccc1 | > 100 |
| 12.7 | 8.12 | O=C(/C=C/c1ccccc1)N[C@@H](Cc1ccccc1)C(=O)N[C@@H](C[C@@H]1CCNC1=O)C(=O)C(=O)NC1CCCCC1 | > 100 |
| 1.78 | 1.68 | CC(C)(C)OC(=O)N[C@@H](Cc1ccc(F)cc1)C(=O)N[C@@H](C[C@@H]1CCCNC1=O)C(=O)C(=O)NC1CC1 | > 100 |
| > 20 | > 20 | O=C(/C=C/c1ccccc1)NC(Cc1ccccc1)C(=O)NC(CC1CCNC1=O)C(=O)C(=O)NCc1ccccc1 (single isomer, unassigned) | > 100 |
| 1.34 | 1.66 | CC(C)NC(=O)C(=O)[C@H](C[C@@H]1CCCNC1=O)NC(=O)[C@H](Cc1ccccc1)NC(=O)/C=C/c1ccccc1 | > 100 |
| 3.32 | 3.57 | O=C(/C=C/c1ccccc1)N[C@@H](Cc1ccccc1)C(=O)N[C@@H](C[C@@H]1CCCNC1=O)C(=O)C(=O)NC1CC1 | > 100 |
| 3.71 | 2.78 | O=C(/C=C/c1ccccc1)N[C@@H](Cc1ccc(F)cc1)C(=O)N[C@@H](C[C@@H]1CCCNC1=O)C(=O)C(=O)NC1CCCCC1 | > 100 |
| > 20 | > 20 | O=C(/C=C/c1ccccc1)NC(Cc1ccccc1)C(=O)NC(CC1CCCNC1=O)C(=O)C(=O)Nc1ccc([N+](=O)[O-])cc1 (single isomer, unassigned) | > 100 |
| > 20 | > 20 | CC(C)(C)NC(=O)C(=O)[C@H](C[C@@H]1CCCNC1=O)NC(=O)[C@H](Cc1ccccc1)NC(=O)/C=C/c1ccccc1 | > 100 |
| 4.08 | 9.59 | CNC(=O)C(=O)[C@H](C[C@@H]1CCCNC1=O)NC(=O)[C@H](Cc1ccccc1)NC(=O)/C=C/c1ccccc1 | > 100 |
| > 20 | > 20 | O=C(/C=C/c1ccccc1)N[C@@H](Cc1ccccc1)C(=O)N[C@@H](C[C@@H]1CCNC1=O)C(=O)C(=O)Nc1ccccc1 | > 100 |
| 8.75 | 6.45 | CC(C)NC(=O)C(=O)[C@H](C[C@@H]1CCNC1=O)NC(=O)[C@H](Cc1ccccc1)NC(=O)/C=C/c1ccccc1 | > 100 |
| 7.83 | 5.42 | O=C(/C=C/c1ccccc1)N[C@@H](Cc1ccccc1)C(=O)N[C@@H](C[C@@H]1CCCNC1=O)C(=O)C(=O)NCc1ccccc1 | > 100 |
| > 20 | > 20 | Cc1ccc(NC(=O)C(=O)[C@H](C[C@@H]2CCCNC2=O)NC(=O)[C@H](Cc2ccccc2)NC(=O)/C=C/c2ccccc2)cc1 | > 100 |
| > 20 | > 20 | CCCCCNC(=O)C(=O)[C@H](C[C@@H]1CCCNC1=O)NC(=O)[C@H](Cc1ccccc1)NC(=O)/C=C/c1ccccc1 | > 100 |
| 17.6 | 15.5 | CCCCNC(=O)C(=O)[C@H](C[C@@H]1CCNC1=O)NC(=O)[C@H](Cc1ccccc1)NC(=O)/C=C/c1ccccc1 | > 100 |
| > 20 | > 20 | CCCCCCCCCCCCNC(=O)C(=O)[C@H](C[C@@H]1CCCNC1=O)NC(=O)[C@H](Cc1ccccc1)NC(=O)/C=C/c1ccccc1 | > 100 |

| Compound | IC50 [1] [µM] | EC50 [3] [µM] | CC50 at 24 h [2] [µM] |
| --- | --- | --- | --- |
| CCCNC(=O)C(=O)[C@H](C[C@@H]1CCCNC1=O)NC(=O)[C@H](Cc1ccccc1)NC(=O)/C=C/c1ccccc1 | 6.22 | 4.59 | > 100 |
